Laboratory results from patent US20220242851A1, “CRYSTAL FORM AND SALT OF QUINAZOLINE COMPOUND AND PREPARATION METHOD THEREOF” (SHENZHEN JINRUI FOUNDATION BIOTECH CO., LTD, priority 2019, published 2022).

How the values were obtained:
HER2(ErbB2) = HER2(ErbB2) (Homo sapiens, UniProt P04626); experiment: In vitro enzyme activity, HER2 (radiometric, Eurofins); type: biochemical; details: conclusion
Description: (§1) The purpose of this assay is to detect the in vitro inhibitory activity of compounds on HER1(ErbB1), HER2(ErbB2), and HER4(ErbB4). The enzymes used in this assay are human ErbB 1, ErbB2 and ErbB4. Eurofins Pharma Discovery Service provided the method for activity detection. Steps and method of the assay (96-well plate): A buffer solution of the assay compounds in a dilution of 5-fold (5 μL), polypeptide substrate poly(Glu, Tyr) (4:1) (2.5 μL), ErbB (4-20 ng, 2.5 μL), MnCl2 (50 mM, 1.25 μL), dH2O (3.75 μL), and [γ-^33P]ATP (10 μL) were added, and incubated at 30° C. for 10 minutes. The reaction was terminated by adding 3% phosphoric acid. 10 μL of the sample was taken and transferred to Filtermate A. The filter disc was washed 3 times with 75 mM phosphoric acid and once with methanol. The filter disc was transferred to a sealed plastic bag and the scintillation mixture (4 mL) was added. The intensity of the emitted photon was detected by a scintillation luminescence counter. The CPM (times/min) of the enzyme sample was compared with the CPM of the internal control sample. The level of photon intensity reflected the degree of the tyrosine kinase activity.

HER4(ErbB4) = HER4(ErbB4) (Homo sapiens, UniProt Q15303); experiment: In vitro enzyme activity, HER4 (radiometric, Eurofins); type: biochemical; details: conclusion
Description: as §1

Pharmacokinetics in mice = type: in vivo, mouse
Description: Purpose of the assay: this assay aimed to investigate in vivo plasma pharmacokinetics of the example compound disclosed herein and the reference compound in female BALB/c mice after the single intravenous injection and intragastric administration thereof.
Animals of the assay: female BALB/c nude mice, 7-9 weeks old, weighted 17-23 grams; supplier: shanghai sippr bk laboratory animals Ltd.
Sample collection: at each time point, a 0.03 mL blood sample was collected from the saphenous vein of the assay animal by puncture, and the actual blood collection time was recorded. All blood samples were added into commercial EDTA-K2 anticoagulation tubes with a specification of 1.5 mL (the supplier was Jiangsu KANGJIAN Medical Apparatus Co., Ltd.). Within half an hour after the blood sample was collected, the blood sample was centrifuged at 3000 g at 4° C. for 10 minutes, and the supernatant plasma was drawn, quickly placed in dry ice, and stored in a refrigerator at −80° C. for LC-MS/MS analysis.
Data analysis: Plasma concentrations were processed using a non-compartmental model of WinNonlin™Version6.3 (Pharsight, MountainView, Calif.) pharmacokinetic software, and pharmacokinetic parameters Cmax, Tmax, T1/2, and AUC0-last were calculated using a linear log trapezoid method.

OE21 cell = experiment: Inhibition of cell proliferation, Cell-Titer-Glo, OE21; type: cell-based, human; details: conclusion
From the text: Purpose of the assay: the inhibitory activity of the assay compounds on cell proliferation was detected. Principle of the assay: the luciferase in a Cell-Titer-Glo reagent produces oxidized luciferin with luciferin, oxygen and ATP as reaction substrates, and releases energy in the form of light. Since the luciferase reaction requires ATP, the total amount of light generated by the reaction is proportional to the total amount of ATP that reflects cell viability. Cell line: NCI-N87 cell line (ATCC-CRL-5822), BT-474 cell line (ATCC-HTB-20), OE21 (ECACC-96062201) Cell culture medium: […] L-[…]×, Gibco#25030-081; penicillin-streptomycin Hyclone# SV30010) Cell Titer-Glo® cell viability assay kit with luminescence (Promega #G7573) 384-well cell culture plate (Greiner # 781090) Compound plate (LABCYTE # LP-0200) CO2 incubator (Thermo#371) Vi-cell cell counter (Beckman Coulter) According to the schematic diagram of the cell seed plate, cells were seeded in a 384- or 96-well plate at a density of 1000 cells per well and 25 μL per well, and 25 μL of PBS was added to the wells near edge of the place where no cells were seeded. (1) The stock solution of the compounds has a concentration of 10 mM, and the compounds were diluted with DMSO to an initial concentration of 4 mM. […] After 10 minutes, the plate was read on PerkinElmer Envision, and the […] reading time was set to 0.2 second.

OE19 cells = experiment: CTG assay of OE19 cells; type: cell-based; details: conclusion
Description: OE19 cells with saturation of 80%-90% were digested with trypsin, centrifuged, resuspended and counted. The concentration of cells was adjusted to […]. OE19 cells were added to a 96-well cell culture plate to 8000 OE19 cells per well. The cells were cultured in a cell incubator containing 5% CO2 at 37° C. overnight.
The stock solution of the assay compounds was serially 3-fold diluted with DMSO to a total of 10 concentrations. Before the start of the assay, the serially diluted assay compounds were further diluted to 10×compound solutions (the highest concentration of 100 μM containing 1% DMSO) with cell culture medium under sterile conditions. The prepared 10×compound solutions were added to the cell culture plate with 10 μL per well. […]
After 72 hours of cell culture, the 96-well cell culture plate was taken out. […] The cell plate was placed in Envision for reading.
The inhibition rate was calculated according to original data as follows: […]
Non-linear regression analysis was performed using the processed data and GraphPad Prism 6 analysis software to obtain a dose-response curve, and the half-inhibitory concentration (IC50) of the assay compounds on OE19 cells was calculated.

Chain of HER4(ErbB4) (Q15303 26-1308): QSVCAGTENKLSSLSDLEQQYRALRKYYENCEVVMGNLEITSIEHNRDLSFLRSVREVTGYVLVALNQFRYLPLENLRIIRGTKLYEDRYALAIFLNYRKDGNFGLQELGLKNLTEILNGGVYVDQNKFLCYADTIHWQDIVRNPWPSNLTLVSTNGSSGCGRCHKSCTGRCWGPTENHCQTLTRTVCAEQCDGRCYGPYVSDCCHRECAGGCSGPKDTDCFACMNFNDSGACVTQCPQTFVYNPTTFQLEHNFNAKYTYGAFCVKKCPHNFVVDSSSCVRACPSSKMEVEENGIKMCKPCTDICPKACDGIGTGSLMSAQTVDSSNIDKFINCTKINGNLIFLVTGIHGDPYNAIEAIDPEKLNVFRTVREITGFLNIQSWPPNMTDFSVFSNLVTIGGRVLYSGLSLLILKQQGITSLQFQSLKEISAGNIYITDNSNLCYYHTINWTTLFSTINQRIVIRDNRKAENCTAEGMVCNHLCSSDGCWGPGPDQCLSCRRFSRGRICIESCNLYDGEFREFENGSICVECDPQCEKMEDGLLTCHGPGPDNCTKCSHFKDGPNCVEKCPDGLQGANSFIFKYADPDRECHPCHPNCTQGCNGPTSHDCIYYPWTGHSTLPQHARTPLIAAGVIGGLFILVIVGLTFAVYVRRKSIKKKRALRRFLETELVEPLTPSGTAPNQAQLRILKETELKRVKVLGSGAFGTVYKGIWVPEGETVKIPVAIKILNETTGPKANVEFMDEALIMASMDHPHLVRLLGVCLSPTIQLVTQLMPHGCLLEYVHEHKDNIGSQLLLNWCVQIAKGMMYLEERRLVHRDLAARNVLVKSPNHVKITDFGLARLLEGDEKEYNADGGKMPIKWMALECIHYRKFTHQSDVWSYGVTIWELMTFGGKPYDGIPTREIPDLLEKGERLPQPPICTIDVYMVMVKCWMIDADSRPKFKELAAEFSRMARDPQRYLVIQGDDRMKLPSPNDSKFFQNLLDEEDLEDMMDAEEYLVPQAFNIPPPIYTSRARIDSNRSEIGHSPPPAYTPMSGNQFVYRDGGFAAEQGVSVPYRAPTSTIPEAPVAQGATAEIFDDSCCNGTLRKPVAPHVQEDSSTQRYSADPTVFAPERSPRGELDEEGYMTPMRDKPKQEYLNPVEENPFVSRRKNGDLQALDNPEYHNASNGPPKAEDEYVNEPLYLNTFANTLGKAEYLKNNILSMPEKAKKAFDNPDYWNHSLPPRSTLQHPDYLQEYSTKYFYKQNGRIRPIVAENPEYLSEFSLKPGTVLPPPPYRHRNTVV
Chain of HER2(ErbB2) (P04626 23-1255): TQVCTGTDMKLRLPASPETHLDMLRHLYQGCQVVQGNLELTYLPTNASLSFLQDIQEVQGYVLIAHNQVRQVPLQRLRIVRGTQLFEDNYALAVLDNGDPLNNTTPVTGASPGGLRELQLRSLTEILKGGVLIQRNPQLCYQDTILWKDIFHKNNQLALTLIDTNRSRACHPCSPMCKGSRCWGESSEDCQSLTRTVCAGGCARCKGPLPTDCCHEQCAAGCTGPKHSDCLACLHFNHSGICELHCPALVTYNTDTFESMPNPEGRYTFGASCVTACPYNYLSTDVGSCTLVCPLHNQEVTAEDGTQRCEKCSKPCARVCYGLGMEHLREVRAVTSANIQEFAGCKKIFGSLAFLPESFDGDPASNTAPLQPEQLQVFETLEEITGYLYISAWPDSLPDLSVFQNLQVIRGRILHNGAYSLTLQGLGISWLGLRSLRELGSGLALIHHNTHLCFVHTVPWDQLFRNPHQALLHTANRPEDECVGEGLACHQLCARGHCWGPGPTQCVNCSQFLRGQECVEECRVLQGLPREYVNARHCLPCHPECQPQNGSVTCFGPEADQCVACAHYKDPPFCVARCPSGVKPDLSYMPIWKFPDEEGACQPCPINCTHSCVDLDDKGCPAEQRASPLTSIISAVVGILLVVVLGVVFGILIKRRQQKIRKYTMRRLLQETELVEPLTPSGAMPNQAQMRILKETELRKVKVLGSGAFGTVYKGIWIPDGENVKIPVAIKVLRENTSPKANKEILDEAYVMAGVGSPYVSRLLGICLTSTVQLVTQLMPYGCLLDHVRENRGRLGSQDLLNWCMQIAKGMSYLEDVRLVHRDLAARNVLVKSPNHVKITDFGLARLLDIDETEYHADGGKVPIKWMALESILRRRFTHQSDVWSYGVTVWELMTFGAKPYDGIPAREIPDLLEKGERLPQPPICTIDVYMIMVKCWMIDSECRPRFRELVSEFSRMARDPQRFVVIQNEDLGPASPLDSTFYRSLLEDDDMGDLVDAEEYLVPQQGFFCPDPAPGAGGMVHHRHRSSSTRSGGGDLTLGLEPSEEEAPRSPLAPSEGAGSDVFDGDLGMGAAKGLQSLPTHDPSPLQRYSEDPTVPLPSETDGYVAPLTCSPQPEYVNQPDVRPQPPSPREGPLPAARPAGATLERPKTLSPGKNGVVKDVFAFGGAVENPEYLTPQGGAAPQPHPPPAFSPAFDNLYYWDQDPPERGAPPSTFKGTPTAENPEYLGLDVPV

In the case of `C=CC(=O)N1[C@@H]2CC[C@H]1C[C@H](Nc1cc3c(Nc4ccc(Cl)c(Cl)c4F)ncnc3cc1OC)C2` [Compound of formula (I)], the “inhibitory activity on HER2 (in words)” value (HER2(ErbB2)) is reported as “significant inhibitory activity”, the “inhibitory activity on HER4 (in words)” value (HER4(ErbB4)) is reported as “significant inhibitory activity” and the “half-life compared with reference (in words)” value (Pharmacokinetics in mice) is reported as “longer half-life than that of the reference compound”. For the same compound, the “oral plasma exposure compared with Poziotinib and control compound 2 (in words)” value (Pharmacokinetics in mice) was “significantly better oral plasma exposure”, the “inhibitory activity on the proliferation of OE21 cells (in words)” value (OE21 cell) was “significant inhibitory activity” and the “inhibitory activity on the proliferation of OE19 cells (in words)” value (OE19 cells) was “significant inhibitory activity”.
